The text below walks through data of ChEMBL document CHEMBL4130457, “Discovery of AZD-2098 and AZD-1678, Two Potent and Bioavailable CCR4 Receptor Antagonists” (ACS Med Chem Lett, 2017).

SMILES strings stand for the structures. Values after ≈ are worked out from the molar mass of the structure shown. Active and inactive are the calls of the source. The calls are words filed in the database; no cut-off is given here.

Data set [1] in a line: Protein binding in human plasma. The format is ADME, cell-free. Conditions: read-out: PPB (converted).
A short description of data set [2]: Lipophilicity, log D of the compound. The format is physicochemical. Conditions: octanol/water.
Data set [3] can be described thus: Solubility of the compound. The format is physicochemical.
The nature of data set [4]: Volume of distribution at steady state in rat. The format is ADME, organism-based. The note with it: in vivo, read-out: Vdss.
The nature of data set [5]: Volume of distribution at steady state in mouse. The format is ADME, organism-based. The note with it: in vivo, read-out: Vdss.
A short description of data set [6]: Oral bioavailability in rat. The format is ADME, organism-based. The note with it: in vivo.
Data set [7] is described as follows: Oral bioavailability in mouse. The format is ADME, organism-based. The note with it: in vivo.
Data set [8] in a line: Antagonist activity at rat CCR4.
In data set [9] the target is T1, C-C chemokine receptor type 4 (Mus musculus, UniProt P51680).
T1 sequence (P51680 whole entry): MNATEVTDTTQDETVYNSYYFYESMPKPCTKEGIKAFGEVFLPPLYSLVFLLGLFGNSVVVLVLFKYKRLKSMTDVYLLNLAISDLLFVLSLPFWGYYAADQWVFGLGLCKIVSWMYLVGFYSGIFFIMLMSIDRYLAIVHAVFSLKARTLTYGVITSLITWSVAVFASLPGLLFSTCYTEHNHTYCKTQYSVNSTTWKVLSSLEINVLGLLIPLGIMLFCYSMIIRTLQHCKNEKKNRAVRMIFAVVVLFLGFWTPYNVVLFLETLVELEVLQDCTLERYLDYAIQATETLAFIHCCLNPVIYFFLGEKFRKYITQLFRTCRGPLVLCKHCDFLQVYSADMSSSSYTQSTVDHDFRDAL
The experiment in a line: Antagonist activity at mouse CCR4. In kind it is functional.

Data set [10] in a line: Protein binding in rat plasma. The format is ADME, cell-free. The note with it: read-out: PPB (converted).
Data set [11] is described as follows: Protein binding in mouse plasma. Conditions: read-out: PPB (converted). The format is ADME, cell-free.
Data set [12] concerns the target T2, C-C chemokine receptor type 4 (Homo sapiens, UniProt P51679).
T2 sequence (P51679 whole entry): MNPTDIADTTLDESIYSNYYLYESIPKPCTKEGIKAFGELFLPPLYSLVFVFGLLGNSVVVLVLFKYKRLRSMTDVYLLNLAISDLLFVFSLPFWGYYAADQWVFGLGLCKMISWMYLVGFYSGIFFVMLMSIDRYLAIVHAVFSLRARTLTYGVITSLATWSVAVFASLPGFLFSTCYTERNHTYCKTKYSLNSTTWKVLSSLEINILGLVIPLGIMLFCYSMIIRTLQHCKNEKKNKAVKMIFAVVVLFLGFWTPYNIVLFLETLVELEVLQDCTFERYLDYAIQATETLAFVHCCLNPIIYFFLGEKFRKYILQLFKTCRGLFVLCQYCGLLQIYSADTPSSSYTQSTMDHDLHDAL
The experiment in a line: Antagonist activity at recombinant human CCR4 expressed in CHO-K1 cells assessed as inhibition of CCL22 induced Ca2+ mobilization after 2 hrs by FMAT based fluorescence assay. In kind it is functional, cell-based.

Data set [13] deals with T3, C-X-C chemokine receptor type 1 (Homo sapiens) (UniProt P25024).
T3 sequence (whole entry): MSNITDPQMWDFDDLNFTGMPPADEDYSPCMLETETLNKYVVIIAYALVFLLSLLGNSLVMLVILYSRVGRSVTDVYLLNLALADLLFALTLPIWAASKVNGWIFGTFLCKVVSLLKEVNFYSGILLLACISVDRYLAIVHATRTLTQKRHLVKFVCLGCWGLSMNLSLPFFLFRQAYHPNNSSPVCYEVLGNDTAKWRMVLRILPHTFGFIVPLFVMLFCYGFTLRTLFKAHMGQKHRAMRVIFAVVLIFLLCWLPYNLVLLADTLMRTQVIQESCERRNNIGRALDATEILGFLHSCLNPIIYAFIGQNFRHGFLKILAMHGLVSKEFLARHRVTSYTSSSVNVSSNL
The experiment in a line: Antagonist activity at CXCR1 (unknown origin) at 10 uM. In kind it is functional.

Data set [14] concerns the target T4, C-X-C chemokine receptor type 2 (Homo sapiens) (UniProt P25025).
T4 sequence (whole entry): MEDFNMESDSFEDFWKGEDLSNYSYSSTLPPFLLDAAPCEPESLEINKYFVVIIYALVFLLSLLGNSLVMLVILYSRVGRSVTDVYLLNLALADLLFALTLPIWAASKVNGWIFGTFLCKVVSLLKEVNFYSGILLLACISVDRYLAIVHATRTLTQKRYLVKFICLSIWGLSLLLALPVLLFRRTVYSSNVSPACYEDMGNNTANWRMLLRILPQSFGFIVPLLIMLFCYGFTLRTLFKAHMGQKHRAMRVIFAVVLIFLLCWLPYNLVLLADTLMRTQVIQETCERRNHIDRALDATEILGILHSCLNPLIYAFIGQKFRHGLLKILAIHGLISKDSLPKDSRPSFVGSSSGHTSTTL
The experiment in a line: Antagonist activity at CXCR2 (unknown origin) at 10 uM. The format is functional.

For data set [15], the target named is T5, C-C chemokine receptor type 1 (Homo sapiens) (UniProt P32246).
T5 sequence (whole entry): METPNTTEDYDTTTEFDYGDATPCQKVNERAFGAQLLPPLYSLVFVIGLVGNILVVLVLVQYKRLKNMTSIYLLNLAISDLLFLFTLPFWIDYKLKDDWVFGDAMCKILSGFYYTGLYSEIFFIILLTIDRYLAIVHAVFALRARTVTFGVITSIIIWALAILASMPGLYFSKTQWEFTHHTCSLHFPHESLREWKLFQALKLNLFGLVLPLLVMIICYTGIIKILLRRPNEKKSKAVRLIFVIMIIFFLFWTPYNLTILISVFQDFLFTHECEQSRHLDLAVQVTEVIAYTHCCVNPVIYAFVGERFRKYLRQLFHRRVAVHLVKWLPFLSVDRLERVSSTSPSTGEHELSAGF
The experiment in a line: Antagonist activity at CCR1 (unknown origin) at 10 uM. The format is functional.

The target of data set [16] is C-C chemokine receptor type 2 (Homo sapiens) (UniProt P41597). The experiment in a line: Antagonist activity at CCR2b (unknown origin) at 10 uM.
The target of data set [17] is C-C chemokine receptor type 5 (Homo sapiens) (UniProt P51681). The experiment in a line: Antagonist activity at CCR5 (unknown origin) at 10 uM. In kind it is functional.
In data set [18] the target is T6, C-C chemokine receptor type 7 (Homo sapiens) (UniProt P32248).
T6 sequence (whole entry): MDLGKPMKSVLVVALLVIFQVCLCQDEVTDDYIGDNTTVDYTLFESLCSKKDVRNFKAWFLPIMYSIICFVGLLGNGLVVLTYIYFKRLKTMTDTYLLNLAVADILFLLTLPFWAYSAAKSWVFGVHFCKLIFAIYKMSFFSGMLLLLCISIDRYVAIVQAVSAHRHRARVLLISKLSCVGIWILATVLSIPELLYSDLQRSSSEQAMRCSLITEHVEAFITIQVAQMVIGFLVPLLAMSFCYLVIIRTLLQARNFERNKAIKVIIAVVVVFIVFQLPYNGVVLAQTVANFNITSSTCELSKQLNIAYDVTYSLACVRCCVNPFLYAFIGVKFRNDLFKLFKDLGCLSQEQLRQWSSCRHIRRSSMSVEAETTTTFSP
The experiment in a line: Antagonist activity at CCR7 (unknown origin) at 10 uM. In kind it is functional.

Data set [19] has as its target C-C chemokine receptor type 8 (Homo sapiens) (UniProt P51685). The experiment in a line: Antagonist activity at CCR8 (unknown origin) at 10 uM. The format is functional.
The test system of data set [20] is Hepatocyte. The experiment in a line: Stability in human hepatocytes assessed per million cells.
The nature of data set [21]: Lipophilicity, log P of the compound. Conditions: octanol/water. The format is physicochemical.
Data set [22] deals with T7, C-C chemokine receptor type 4 (Canis lupus familiaris, UniProt Q8MJW8).
T7 sequence (Q8MJW8 whole entry): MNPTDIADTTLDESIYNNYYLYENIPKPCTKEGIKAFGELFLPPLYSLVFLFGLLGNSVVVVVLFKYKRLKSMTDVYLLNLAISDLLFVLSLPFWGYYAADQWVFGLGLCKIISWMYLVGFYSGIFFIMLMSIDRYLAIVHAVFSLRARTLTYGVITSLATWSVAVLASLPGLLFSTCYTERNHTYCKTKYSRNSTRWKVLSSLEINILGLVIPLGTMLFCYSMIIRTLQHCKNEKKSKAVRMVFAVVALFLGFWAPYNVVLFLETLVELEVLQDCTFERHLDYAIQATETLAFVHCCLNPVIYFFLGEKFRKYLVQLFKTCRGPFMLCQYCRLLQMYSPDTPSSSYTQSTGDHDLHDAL
The experiment in a line: Antagonist activity at dog CCR4.

Data set [23] is described as follows: Clearance in rat at 9 umol/kg, po or 3 umol/kg, iv. In kind it is ADME, organism-based. The note with it: in vivo.
Data set [24] is described as follows: Clearance in dog at 9 umol/kg, po or 3 umol/kg, iv. In kind it is ADME, organism-based, Canis lupus familiaris. Conditions: in vivo.
Data set [25] is described as follows: Volume of distribution at steady state in rat at 9 umol/kg, po or 3 umol/kg, iv. Conditions: in vivo, read-out: Vdss. In kind it is ADME, organism-based.
Data set [26] can be described thus: Volume of distribution at steady state in dog at 9 umol/kg, po or 3 umol/kg, iv. In kind it is ADME, organism-based, Canis lupus familiaris. Conditions: in vivo, read-out: Vdss.
The nature of data set [27]: Half life in rat at 9 umol/kg, po or 3 umol/kg, iv. The format is ADME, organism-based. The note with it: in vivo.
Data set [28] is described as follows: Half life in dog at 9 umol/kg, po or 3 umol/kg, iv. The format is ADME, organism-based, Canis lupus familiaris. Conditions: in vivo.
Data set [29] in a line: Oral bioavailability in rat at 9 umol/kg. The format is ADME, organism-based. Conditions: in vivo.
The nature of data set [30]: Oral bioavailability in dog at 9 umol/kg. The note with it: in vivo. The format is ADME, organism-based, Canis lupus familiaris.
Data set [31] has as its target T2, C-C chemokine receptor type 4. The experiment in a line: Antagonist activity at human CCR4 expressed in HEK cells coexpressing CD4+ assessed as inhibition of CCL22 induced Ca2+ mobilization. The format is functional, cell-based.
In data set [32] the target is T8, C-C chemokine receptor type 4 (Homo sapiens) (UniProt P51679).
T8 sequence (whole entry): T2 sequence (P51679 whole entry)
The experiment in a line: Agonist activity at CCR4 (unknown origin) up to 10 uM. In kind it is functional.

Sequence of C-C chemokine receptor type 8 (Homo sapiens) (P51685 whole entry): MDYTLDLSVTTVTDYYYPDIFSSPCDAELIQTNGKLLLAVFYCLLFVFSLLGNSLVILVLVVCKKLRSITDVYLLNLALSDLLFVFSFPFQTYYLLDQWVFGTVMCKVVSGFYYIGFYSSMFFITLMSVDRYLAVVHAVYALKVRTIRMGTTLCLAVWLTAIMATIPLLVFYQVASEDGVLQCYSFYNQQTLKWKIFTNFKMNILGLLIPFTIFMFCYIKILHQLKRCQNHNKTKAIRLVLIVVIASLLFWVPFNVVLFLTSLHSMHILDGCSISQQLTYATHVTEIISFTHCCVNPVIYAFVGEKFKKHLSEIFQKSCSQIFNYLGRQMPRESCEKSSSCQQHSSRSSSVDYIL
Sequence of C-C chemokine receptor type 5 (Homo sapiens) (P51681 whole entry, looked up): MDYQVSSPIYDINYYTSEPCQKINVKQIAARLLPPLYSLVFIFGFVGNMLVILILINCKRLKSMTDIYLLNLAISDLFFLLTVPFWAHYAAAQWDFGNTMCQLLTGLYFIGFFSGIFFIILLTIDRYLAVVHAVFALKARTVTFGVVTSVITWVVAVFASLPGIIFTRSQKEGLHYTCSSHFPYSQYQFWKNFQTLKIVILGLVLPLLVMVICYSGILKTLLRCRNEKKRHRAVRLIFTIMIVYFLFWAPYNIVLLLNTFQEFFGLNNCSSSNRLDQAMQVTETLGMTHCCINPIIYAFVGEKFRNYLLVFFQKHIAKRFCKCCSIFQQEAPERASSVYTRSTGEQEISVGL
Sequence of C-C chemokine receptor type 2 (Homo sapiens) (P41597 whole entry, looked up): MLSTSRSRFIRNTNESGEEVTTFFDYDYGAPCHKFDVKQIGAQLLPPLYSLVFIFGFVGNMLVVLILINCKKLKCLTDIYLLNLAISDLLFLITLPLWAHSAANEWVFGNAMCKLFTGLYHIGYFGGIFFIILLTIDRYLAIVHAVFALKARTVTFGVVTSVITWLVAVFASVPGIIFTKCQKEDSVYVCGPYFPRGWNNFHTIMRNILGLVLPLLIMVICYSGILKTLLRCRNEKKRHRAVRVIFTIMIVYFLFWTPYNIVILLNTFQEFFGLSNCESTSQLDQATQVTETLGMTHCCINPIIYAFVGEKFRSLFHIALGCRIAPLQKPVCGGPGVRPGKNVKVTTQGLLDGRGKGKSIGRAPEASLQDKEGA

For `COc1nc(Br)cnc1NS(=O)(=O)c1ccc(Cl)s1`, the fraction unbound in [1] is below 0.001; in data set [10], 0.0015; in data set [11], 0.033. The pH-dependent lipophilicity (logD) in [2] came out at 1.1. Also, in [3], the concentration in solution (solubility) was 340 µg/mL (≈ 884 µM). Besides, the Vd in data set [4] and in data set [5] was 0.1 L/kg each time. For the same compound, the values for the bioavailability in data set [6] and in data set [7] were 45% and 86%, respectively. For the same compound, in data set [8], the pIC50 was 8.3. Further, the IC50 in [9] was 5.01 nM; in [12] it was 63.1 nM. For the same compound, the result in [13], in data set [14], in data set [15], in data set [16], in [17] and in data set [18] was inactive. Besides, in data set [19], the result was inactive.
For the compound `COc1nc(F)cnc1NS(=O)(=O)c1cccc(Cl)c1Cl`, the fraction unbound in [1] was 0.006. This compound also came in with a logD in data set [2] of 0.6. This compound had a solubility in [3] of 1300 µg/mL (≈ 3690 µM). Also, the Stability in [20] is recorded as below 1 uL/ml. For the same compound, the negative logarithm of the IC50 (pIC50) in data set [8] is 9. For the same compound, the IC50 in [9] is 1 nM; in [12] it was 2.51 nM; in data set [22], 3.16 nM; in data set [31] it was 3.98 nM. Moreover, the outcome in [13], in [14], in [15], in data set [16], in data set [17] and in data set [18] was inactive. In addition, the result in data set [19] and in data set [32] was inactive. Besides, the logP in data set [21] was 3.1. The clearance is 2.3 mL/min/kg in [23] and 3.7 mL/min/kg in [24]. Further, the Vd in data set [25] and in data set [26] was 0.2 L/kg throughout. Besides, the values for the half-life in data set [27] and in [28] were 2.5 h and 0.5 h, respectively. The bioavailability in data set [29] and in [30] was 100% throughout.
